Data as given in patent US20260092083A1, “VANCOMYCIN DERIVATIVES WITH SIDEROPHORE MODIFICATION AS NOVEL REPURPOSED ANTIBIOTICS TO COMBAT GRAM-NEGATIVE BACTERIAL INFECTION” (priority 2023, published 2026).
In brackets after ≈: the same amount, converted by molar mass.

Experiments:
Format in all cases: cell-based
[1] = test system: P. aeruginosa (multi-pump-gene mutant) PAM1626; assay: Broth microdilution MIC, P. aeruginosa efflux-deficient; details: Pseudomonas aeruginosa, read-out: MIC (μg/mL) Gram-negative PSA Efflux
Protocol: (§1) The test compounds including vancomycin hydrochloride were supplied as a 6.4 mg/mL solution in 100% dimethyl sulfoxide (DMSO) aliquoted into individual wells of a 96-well plate (50 μL per well). […] Standardized inocula were added to the MIC test plates, which were incubated for the prescribed times at 35° C. The N. gonorrhoeae strain was incubated in an atmosphere containing 5% CO2.
(§2) The final optical density of each well at 600 nm was measured using a Tecan Spark plate reader. The compound concentration versus OD600 data were then curve fit using custom software. An MIC value was defined as the lowest compound concentration that led to an OD600 value≤0.15 for the E. coli, K. pneumoniae, P. aeruginosa, A. baumannii, or S. aureus strains. For the N. gonorrhoeae strain, an OD600 value≤0.19 was used as a cutoff to define an MIC value; this higher cut-off value was required because the N. gonorrhoeae MIC plates were covered with plastic seals that increased the background OD600 value.
(§3) JMI Laboratories followed current CLSI quality assurance practices when performing the susceptibility tests. MIC values were validated by concurrently testing the CLSI-recommended ATCC QC reference strains S. aureus ATCC 29213 and K. pneumoniae ATCC 700603. The inoculum density during susceptibility testing was monitored by bacterial colony counts. Where applicable, QC ranges for tested reference strains were those ranges approved or published by CLSI for testing in CAMHB. […] Importantly, the CLSI reference method for testing N. gonorrhoeae is the agar dilution MIC method, which was not used here. Thus, CLSI MIC QC ranges for N. gonorrhoeae could not be applied to the antimicrobials studied here.
(§4) Abbreviations: EC, E. coli (wild-type) BW25113; EC efflux^−, E. coli (tolC) JW5503-1; KPN, K. pneumoniae ATCC 700603; PSA, P. aeruginosa PAO1; PSA efflux^−, P. aeruginosa (multi-pump-gene mutant) PAM1626; ACB, A. baumannii JMI #1186154; GC, N. gonorrhoeae WHO-Z; SA, S. aureus ATCC 29213. Broth microdilution MIC values were measured in iron-depleted CAMHB for all strains except for GC, which was tested in fastidious broth.

P. aeruginosa PAO1 = assay: Broth microdilution MIC, P. aeruginosa; details: Pseudomonas aeruginosa, iron-depleted CAMHB, OD600 ≤0.15, read-out: MIC (μg/mL) Gram-negative PSA
Protocol: as §1, §2, §3, §4

S. aureus ATCC 29213 = assay: Broth microdilution MIC, S. aureus; details: Staphylococcus aureus, ATCC29213, iron-depleted CAMHB, OD600 ≤0.15, read-out: MIC (μg/mL) Gram positive SA
Protocol: as §1, §2, §3, §4

[2] = test system: K. pneumoniae ATCC 700603; assay: Broth microdilution MIC, K. pneumoniae; details: Klebsiella pneumoniae, ATCC700603, read-out: MIC (μg/mL) Gram-negative KPN
Protocol: as §1, §2, §3, §4

[3] = test system: E. coli (wild-type) BW25113; assay: Broth microdilution MIC, E. coli wild-type; details: Escherichia coli, iron-depleted CAMHB, OD600 ≤0.15, read-out: MIC (μg/mL) Gram-negative EC
Protocol: as §1, §2, §3, §4

N. gonorrhoeae WHO-Z = assay: Broth microdilution MIC, N. gonorrhoeae; details: Neisseria gonorrhoeae, read-out: MIC (μg/mL) Gram-negative GC
Protocol: as §1, §2, §3, §4

E. coli (tolC) JW5503-1 = assay: Broth microdilution MIC, E. coli efflux-deficient (tolC); details: Escherichia coli, read-out: MIC (μg/mL) Gram-negative EC Efflux
Protocol: as §1, §2, §3, §4

[4] = test system: A. baumannii JMI #1186154; assay: Broth microdilution MIC, A. baumannii; details: Acinetobacter baumannii, iron-depleted CAMHB, OD600 ≤0.15, read-out: MIC (μg/mL) Gram-negative ACB
Protocol: as §1, §2, §3, §4

Structure (SMILES)	MIC [1] [µg/mL]	MIC (P. aeruginosa PAO1) [µg/mL]	MIC (S. aureus ATCC 29213) [µg/mL]	MIC [2] [µg/mL]	MIC [3] [µg/mL]	MIC (N. gonorrhoeae WHO-Z) [µg/mL]	MIC (E. coli (tolC) JW5503-1) [µg/mL]	MIC [4] [µg/mL]
CN[C@H](CC(C)C)C(=O)N[C@H]1C(=O)N[C@@H](CC(N)=O)C(=O)N[C@H]2C(=O)N[C@H]3C(=O)N[C@H](C(=O)N[C@H](C(=O)NCCCCCCNC(=O)c4ccc(O)c(O)c4Cl)c4cc(O)cc(O)c4-c4cc3ccc4O)[C@H](O)c3ccc(c(Cl)c3)Oc3cc2cc(c3O[C@@H]2O[C@H](CO)C(O)C(O)[C@H]2O[C@H]2CC(C)(N)[C@H](O)[C@H](C)O2)Oc2ccc(cc2Cl)[C@H]1O (stereo partly drawn) [Compound 7]	> 64	> 64	4 (≈ 2.33 µM)	> 64	64 (≈ 37.3 µM)	> 64	64 (≈ 37.3 µM)	1 (≈ 0.582 µM)
CN[C@H](CC(C)C)C(=O)N[C@H]1C(=O)N[C@@H](CC(N)=O)C(=O)N[C@H]2C(=O)N[C@H]3C(=O)N[C@H](C(=O)N[C@H](C(=O)NCCCCCCCNC(=O)c4ccc(O)c(O)c4Cl)c4cc(O)cc(O)c4-c4cc3ccc4O)[C@H](O)c3ccc(c(Cl)c3)Oc3cc2cc(c3O[C@@H]2O[C@H](CO)C(O)C(O)[C@H]2O[C@H]2CC(C)(N)[C@H](O)[C@H](C)O2)Oc2ccc(cc2Cl)[C@H]1O (stereo partly drawn) [Compound 8]	> 64	> 64	4 (≈ 2.31 µM)	> 64	64 (≈ 37 µM)	> 64	64 (≈ 37 µM)	2 (≈ 1.15 µM)
CN[C@H](CC(C)C)C(=O)N[C@H]1C(=O)N[C@@H](CC(N)=O)C(=O)N[C@H]2C(=O)N[C@H]3C(=O)N[C@H](C(=O)N[C@H](C(=O)NCCCCCCCCNC(=O)c4ccc(O)c(O)c4Cl)c4cc(O)cc(O)c4-c4cc3ccc4O)[C@H](O)c3ccc(c(Cl)c3)Oc3cc2cc(c3O[C@@H]2O[C@H](CO)C(O)C(O)[C@H]2O[C@H]2CC(C)(N)[C@H](O)[C@H](C)O2)Oc2ccc(cc2Cl)[C@H]1O (stereo partly drawn) [Compound 9]	> 64	> 64	4 (≈ 2.29 µM)	> 64	64 (≈ 36.7 µM)	> 64	64 (≈ 36.7 µM)	8 (≈ 4.58 µM)
CN[C@H](CC(C)C)C(=O)N[C@H]1C(=O)N[C@@H](CC(N)=O)C(=O)N[C@H]2C(=O)N[C@H]3C(=O)N[C@H](C(=O)N[C@H](C(=O)NCCCNC(=O)c4cccc(O)c4O)c4cc(O)cc(O)c4-c4cc3ccc4O)[C@H](O)c3ccc(c(Cl)c3)Oc3cc2cc(c3O[C@@H]2O[C@H](CO)C(O)C(O)[C@H]2O[C@H]2CC(C)(N)[C@H](O)[C@H](C)O2)Oc2ccc(cc2Cl)[C@H]1O (stereo partly drawn) [Compound 12]	> 64	> 64	2 (≈ 1.22 µM)	> 64	64 (≈ 39 µM)	> 64	64 (≈ 39 µM)	4 (≈ 2.44 µM)
CN[C@H](CC(C)C)C(=O)N[C@H]1C(=O)N[C@@H](CC(N)=O)C(=O)N[C@H]2C(=O)N[C@H]3C(=O)N[C@H](C(=O)N[C@H](C(=O)NCCCCNC(=O)c4cccc(O)c4O)c4cc(O)cc(O)c4-c4cc3ccc4O)[C@H](O)c3ccc(c(Cl)c3)Oc3cc2cc(c3O[C@@H]2O[C@H](CO)C(O)C(O)[C@H]2O[C@H]2CC(C)(N)[C@H](O)[C@H](C)O2)Oc2ccc(cc2Cl)[C@H]1O (stereo partly drawn) [Compound 13]	> 64	> 64	2 (≈ 1.21 µM)	> 64	64 (≈ 38.7 µM)	> 64	> 64	4 (≈ 2.42 µM)
CNC(CC(C)C)C(=O)NC1C(=O)NC(CC(N)=O)C(=O)NC2C(=O)NC3C(=O)NC(C(=O)N[C@H](C(=O)NCCc4cn(CCNC(=O)c5cccc(O)c5O)nn4)c4cc(O)cc(O)c4-c4cc3ccc4O)C(O)c3ccc(c(Cl)c3)Oc3cc2cc(c3OC2OC(CO)C(O)C(O)C2OC2CC(C)(N)C(O)C(C)O2)Oc2ccc(cc2Cl)C1O (stereo partly drawn) [Compound 15]	> 64	> 64	4 (≈ 2.32 µM)	> 64	> 64	> 64	> 64	16 (≈ 9.29 µM)
CN[C@H](CC(C)C)C(=O)N[C@H]1C(=O)N[C@@H](CC(N)=O)C(=O)N[C@H]2C(=O)N[C@H]3C(=O)N[C@H](C(=O)N[C@H](C(=O)NCCCNS(=O)(=O)c4ccc(O)c(O)c4)c4cc(O)cc(O)c4-c4cc3ccc4O)[C@H](O)c3ccc(c(Cl)c3)Oc3cc2cc(c3O[C@@H]2O[C@H](CO)C(O)C(O)[C@H]2O[C@H]2CC(C)(N)[C@H](O)[C@H](C)O2)Oc2ccc(cc2Cl)[C@H]1O (stereo partly drawn) [Compound 16]	> 64	> 64	4 (≈ 2.38 µM)	> 64	32 (≈ 19.1 µM)	> 64	64 (≈ 38.2 µM)	4 (≈ 2.38 µM)
CN[C@H](CC(C)C)C(=O)N[C@H]1C(=O)N[C@@H](CC(N)=O)C(=O)N[C@H]2C(=O)N[C@H]3C(=O)N[C@H](C(=O)N[C@H](C(=O)NCCCCNS(=O)(=O)c4ccc(O)c(O)c4)c4cc(O)cc(O)c4-c4cc3ccc4O)[C@H](O)c3ccc(c(Cl)c3)Oc3cc2cc(c3O[C@@H]2O[C@H](CO)C(O)C(O)[C@H]2O[C@H]2CC(C)(N)[C@H](O)[C@H](C)O2)Oc2ccc(cc2Cl)[C@H]1O (stereo partly drawn) [Compound 17]	> 64	> 64	2 (≈ 1.18 µM)	> 64	32 (≈ 18.9 µM)	> 64	64 (≈ 37.8 µM)	2 (≈ 1.18 µM)
CNC(CC(C)C)C(=O)N[C@H]1C(=O)N[C@@H](CC(N)=O)C(=O)N[C@H]2C(=O)N[C@H]3C(=O)N[C@H](C(=O)N[C@@H](C(=O)NCc4cn(CCNC(=O)c5ccc(O)c(O)c5Cl)nn4)c4cc(O)cc(O)c4-c4cc3ccc4O)[C@H](O)c3ccc(c(Cl)c3)Oc3cc2cc(c3OC2O[C@H](CO)C(O)C(O)[C@H]2O[C@H]2CC(C)(N)[C@H](O)C(C)O2)Oc2ccc(cc2Cl)[C@H]1O (stereo partly drawn) [Compound 19]	> 64	> 64	8 (≈ 4.59 µM)	> 64	> 64	> 64	> 64	1 (≈ 0.574 µM)
CNC(CC(C)C)C(=O)NC1C(=O)NC(CC(N)=O)C(=O)NC2C(=O)NC3C(=O)NC(C(=O)N[C@H](C(=O)O)c4cc(O)c(CNCCCNC(=O)c5ccc(O)c(O)c5Cl)c(O)c4-c4cc3ccc4O)C(O)c3ccc(c(Cl)c3)Oc3cc2cc(c3OC2OC(CO)C(O)C(O)C2OC2CC(C)(N)C(O)C(C)O2)Oc2ccc(cc2Cl)C1O (stereo partly drawn) [Compound 22]	> 64	> 64	64 (≈ 37.5 µM)	> 64	16 (≈ 9.38 µM)	> 64	32 (≈ 18.8 µM)	4 (≈ 2.34 µM)
CNC(CC(C)C)C(=O)NC1C(=O)NC(CC(N)=O)C(=O)NC2C(=O)NC3C(=O)NC(C(=O)N[C@H](C(=O)O)c4cc(O)c(CNCCCCNC(=O)c5ccc(O)c(O)c5Cl)c(O)c4-c4cc3ccc4O)C(O)c3ccc(c(Cl)c3)Oc3cc2cc(c3OC2OC(CO)C(O)C(O)C2OC2CC(C)(N)C(O)C(C)O2)Oc2ccc(cc2Cl)C1O (stereo partly drawn) [Compound 23]	> 64	> 64	64 (≈ 37.2 µM)	> 64	64 (≈ 37.2 µM)	> 64	> 64	8 (≈ 4.65 µM)
CNC(CC(C)C)C(=O)NC1C(=O)NC(CC(N)=O)C(=O)NC2C(=O)NC3C(=O)NC(C(=O)N[C@H](C(=O)O)c4cc(O)c(CNCCNC(=O)c5cccc(O)c5O)c(O)c4-c4cc3ccc4O)C(O)c3ccc(c(Cl)c3)Oc3cc2cc(c3OC2OC(CO)C(O)C(O)C2OC2CC(C)(N)C(O)C(C)O2)Oc2ccc(cc2Cl)C1O (stereo partly drawn) [Compound 24]	> 64	> 64	32 (≈ 19.3 µM)	> 64	> 64	> 64	> 64	8 (≈ 4.83 µM)
